From US20240123013A1, “SUPPLEMENT FOR ARTHRITIS AND PSORIASIS” (priority 2021, published 2024) come the findings set out here.

A short description of this assay: Comparison of arthritis gel compositions formulated with different crystalline CBDs (Example 12). The conditions noted are these: gels differ only in the crystalline CBD used. The protocol: Two hydroalcoholic arthritis gel compositions are prepared according to Example 2, the only difference being that the crystalline CBD used in the formulation is either of type A (needle-like crystals; FIG. 1) or type B (bunch/cluster-like; FIG. 2).

For `C=C(C)[C@@H]1CCC(C)=C[C@H]1c1c(O)cc(CCCCC)cc1O` [type A CBD, cannabidiol], the “Activity of CBD in hydroalcoholic arthritis gel, crystal type A versus type B” value is listed as “significantly more active than type B CBD”. The “Activity of CBD in hydroalcoholic arthritis gel, crystal type A versus type B” value (listed as crystal structure A) is listed as “significantly more potent”.
